Values joined by “and” are separate entries in the source; they are usually repeats but may differ in a detail not shown here. Equal entries are not always repeated. Marks after values point to notes of the source that are not given here.
Experiments:
[1] = Basal cytotoxicity test, Neutral Red Uptake (NRU) assay; assay type: cell-based; settings: for LD50 at 24 h: mouse, po, acute oral LD50 calculated from 3T3 NRU IC50 by regression formula, read-out: Basal cytotoxicity Estimated* LD50; for IC50 at 24 h: normal mouse embryo fibroblasts, read-out: Cytotoxicity IC50, 3T3
Method in brief: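 Balb/c 3T3 fibroblasts (9000 cells/well) exposed 24 h to compounds at 1–1000 μg/ml in DMEM with 5% FBS. Viability by Neutral Red uptake (3 h, 0.05 mg/mL), absorbance at 540 nm relative to untreated cells; IC50 from concentration–response.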

B16-F10 melanoma cells = experiment: Melanoma model of lung metastasis in C57BL/6 mice; assay type: in vivo, mouse; settings: total dose 140 mg/kg; for Inhibition of melanoma metastasis in lung: s.c. Day 1, 7, 8, 9, 10, 11, 14, 20 mg/kg, day 21; for Animals (group of six) without melanoma metastasis: s.c.
Description: B16-F10 cells (10,000/0.1 ml PBS) were injected i.v. into syngeneic mice. The number of macroscopic lung metastases was determined 21 days later.
C57BL/6 mice were injected with 100,000 B16-F10 melanoma cells into the mice via the tail vein and treatment started 24 hr later with subcutaneous injections (s.c.) of compounds administered according to the following scheme: 1, 7, 8, 9, 10, 11 and 14th days in dose 20 mg/kg. Mice in the control group were similarly given doses of 0.1 mL of water with DMSO (DMSO final concentration <1%). Twenty-one days later, all mice were anesthetized with ketamine/xylazine and euthanized, the mice were sacrificed and the black melanoma nodules on the lungs were measured. In each experiment, mice were weighed twice weekly.

4T1 carcinoma cells = experiment: 4T1 model of lung metastasis (tail vein) in Balb/c mice; assay type: in vivo, mouse; settings: for % of the total area occupied by metastases, % (control = 100) / % of the total area occupied by metastases, Mean ± SD: 20 mg/kg, days 1, 4, 7, 9, 11, 14
Description: Compounds were administered s.c. at 1, 4, 7, 9, 11 and 14th days. 4T1 cells (10,000/0.1 ml PBS) were injected i.v. into syngeneic mice. The metastasis at day 16 are shown for each mouse, and averages are provided for illustration.
Balb/c mice were injected with 100,000 4T1 […] cancer cells into the tail vein and treatment started 24 hr later with subcutaneous (s.c.), intraperitoneal (i.p.) injections or oral administration (p.o.) of compounds according to the following scheme: 1, 4, 7, 9, 11 and 14th days in dose 20 or 40 mg/kg. Compounds were dissolved in DMSO and the solution were diluted by water (DMSO final concentration <1%). Mice in the control group were similarly given doses of 0.1 mL of water with DMSO. Twenty-one days later, all mice were anesthetized with ketamine/xylazine and euthanized, the mice were sacrificed spleens were excised from the mice and weighed. In each experiment, mice were weighed twice weekly.
(Lewis et al, Cancer Res, 2005, 65) Pulmonary metastases were enumerated by intra-tracheal injection of India ink (15% India Ink, 85% water, 3 drops NH4OH/100 ml). India ink injected lungs were washed in Feket's solution (300 ml 70% EtOH, 30 ml 37% formaldehyde, 5 ml glacial acetic acid) and then placed fresh Feket's solution overnight. […] White tumor nodules against a black lung background were measured.

[2] = Acute p.o. toxicity, Up-and-Down Procedure (OECD 425); settings: mouse, in vivo, po; p.o. single dose, 6 weeks old male ICR mice
Description: Acute p.o. toxicity (LD50) was estimated by the Up-and-Down Procedure according to the OECD Test Guideline 425 [OECD (2001) Guideline for testing of chemicals OECD 425, acute oral toxicity—Up-and-Down Procedure, Paris, p. 1-26]. Animals were observed daily for clinical signs or mortality over a period of two weeks following the treatment. Compounds were dissolved in DMSO and then in PBS (pH 7.4; DMSO final concentration <1%). The test substance was administered in a single dose p.o. to mice. […]
Acute toxicity in vivo has been determined for I-10 and I-11 on 6 weeks old male ICR mice.

Compound | LD50 at 24 h [1] | IC50 at 24 h [1] [µM] | Inhibition of melanoma metastasis in lung (B16-F10 melanoma cells) [%] | Animals (group of six) without melanoma metastasis (B16-F10 melanoma cells) | Effect on development of splenomegaly (4T1 carcinoma cells; 4T1 i.v.) | Spleen weight increase (4T1 carcinoma cells; 4T1 i.v., dose not stated, control with tumor +147%) [%] | % of the total area occupied by metastases, % (control = 100) (4T1 carcinoma cells; i.p.) [%] | % of the total area occupied by metastases, Mean ± SD (4T1 carcinoma cells; i.p.) [%] | % of the total area occupied by metastases, % (control = 100) (4T1 carcinoma cells; p.o.) | % of the total area occupied by metastases, Mean ± SD (4T1 carcinoma cells; p.o.) [%] | % of the total area occupied by metastases, % (control = 100) (4T1 carcinoma cells; s.c.) | % of the total area occupied by metastases, Mean ± SD (4T1 carcinoma cells; s.c., control 50 ± 33) [%] | LD50 at 2 weeks [2] [mg/kg] | Prevention of formation of 4T1 carcinoma lung metastasis (4T1 carcinoma cells; five mice per group) [%]
COC(=O)c1cc2ccc3c(Br)c(CN4CCN(C)CC4)[se]c3c2oc1=O [Compound I-10, Methyl 7-bromo-8-((4-methylpiperazin-1-yl)methyl)-2-oxo-2H-selenopheno[3,2-h]chromene-3-carboxylate] | 4300 µmol/kg and 2300 mg/kg | 86 ± 5 | 74 | five | does not affect the development of splenomegaly | 63 | 86 | 43 ± 40 | 32** % | 16 ± 18 | 19* % | 10 ± 29 | 891 | 
O=C(O)c1cc2ccc3c(Br)c(C4(O)CCCCC4)[se]c3c2oc1=O [Compound I-11, 7-Bromo-8-(1-hydroxycyclohexyl)-2-oxo-2H-selenopheno[3,2-h]chromene-3-carboxylic acid] | > 5800 µmol/kg and > 2730 mg/kg | > 213 | 96 | four |  |  | 62 | 31 ± 41 | 28** % | 14 ± 31 | 39** % | 20 ± 30 | > 2000 | 98

— patent US10561681B2, “Antimetastatic 2H-selenopheno[3,2-h]chromenes, synthesis thereof, and methods of using same agents” (Latvian Institute of Organic Synthesis, priority 2016, dated 2020)
